# Measured values: US20100204460A1, “NATURAL BRASSINOSTEROIDS FOR USE FOR TREATING HYPERPROLIFERATION, TREATING PROLIFERATIVE DISEASES AND REDUCING ADVERSE EFFECTS OF STEROID DYSFUNCTION IN MAMMALS, PHARMACEUTICAL COMPOSITION AND ITS USE” (priority 2007, published 2010)
# How the values were obtained:
# Assay type in all cases: cell-based
# [1] = test system: MDA-MB-468 cells; experiment: TUNEL detection of apoptosis, MDA-MB-468; settings: IC50 concentration, control 0.0 ± 0.0
# Experimental: TdT-Mediated dUTP nick end labeling (TUNEL) detection of apoptosis index. For detection of apoptotic cells, the TUNEL assay was used. […] After period of treatment, the cells were washed with PBS and fixed on the slides with cold acetone-methanol (1:1, v/v) for 10 min. Apoptosis-induced nuclear DNA fragmentation was detected by terminal deoxynucleotidyl transferase-mediated UTP nick end labeling (TUNEL) technique according to the producer protocol (In Situ Cell Death Detection Kit; Roche Diagnostics, Mannheim, Germany). The cells were then washed three times in PBS and stained with 4′-6-diamidino-2-phenylindole (DAPI; 50 μg/ml; Sigma, St. Louis, Mo., USA) for 10 min in the dark. The coverslips with cells were washed in deionized water and mounted on glass slides, using the hydrophilic medium Mowiol (Calbiochem, Fremont, Calif., USA) in glycerol-PBS (1:3, v/v) for fluorescence. Cells were visualized using fluorescence microscopy and compared with control cells. TUNEL staining achieved to confirm apoptosis in all cell lines.
# [2] = test system: MDA-MB-468 cells; experiment: Western blot of cell cycle and apoptosis related proteins, MDA-MB-468; settings: for expression of apoptosis related proteins (Bcl-2 family, caspase-3 activation) (Western blot) / p21Waf1/Cip1 expression (Western blot) / p27Kip1 expression (Western blot): IC50 for 6, 12, 24 h vs untreated control; for retinoblastoma protein (Rb) expression, phosphorylated and dephosphorylated forms (Western blot): vs untreated control
# Experimental: The cells were seeded in a density 1.6×10^4 cells/cm^2 (LNCaP), 1.4×10^4 cells/cm^2 (DU-145, MDA-MB-468 and MCF-7) using culture medium in 100-mm culture Petri dishes. After reaching of 70-80% confluence, the cells were treated with tested compounds 9 in concentration IC50 that were evaluated by MTT analysis described above. DMSO was used as a vehicle for controls. After 6, 12 and 24 h treatment, the cells were washed with cold PBS and scraped in ice-cold protein extract ion buffer (50 mM HEPES, pH 7.5; 150 mM NaCl; 1 mM EDTA; 2.5 mM EGTA; 10% glycerol; 0.1% Tween 20) with protease and phosphatase inhibitors (25 μL/mL phenylmethanesulphonyl fluoride; 2.5 μL/mL leupeptin; 0.1 mM Na3VO4; 2.5 μL/mL aprotinin; 10 mM β-glycerol-phosphate; 1 mM dithiothreitol). The lysates were collected into microfuge tube and incubated on ice for 1 h. Cells were incubated 60 min at 4° C. under time by time shaking in protein extraction buffer. After centrifugation at 45 000×g for 30 min at 4° C., supernatant was collected, aliquoted, and stored at −80° C. The protein content in the lysates was measured by a Bredford assay (Bio-Rad Laboratories, Hercules, Calif., USA) according to the manufacture's protocol.
# For Western blot analysis, equal aliquots of proteins (15-30 μg/well) were loaded on 10% or 12% SDS-PAGE gels and transferred onto nitrocellulose membranes (Amersham Biosciences, Vienna, Austria) by semi-dry electrophoretic transfer. Coloured marker (Rainbow™, Amersham Biosciences, Vienna, Austria) was used as a protein molecular weight standard. The non-specific binding sites were blocked by incubating the blot with 5% (w/v) non-fat dry milk in PBS for 2 h. The blot was incubated overnight in 4° C. with appropriate primary antibody that detects the protein epitope of interest and finally washed in PBS with 0.1% Tween 20 for 1 h. The blot was incubated with the diluted secondary goat anti-mouse IgG-horseradish peroxidase conjugated antibody (dilution 1:6000, Santa Cruz Biotechnology, Santa Cruz, Calif., USA) or goat anti-rabbit IgG-horseradish peroxidase conjugated antibody (dilution 1:2000, DakoCytomation, Glostrup, Denmark) for 45 min in 4° C. The membrane was washed in PBS with 0.1% Tween 20 for 1 h. The proteins were detected using a chemiluminescence detection system (Amersham Biosciences, Vienna, Austria) according to the protocol provided by the manufacturer. Equality of loaded proteins was confirmed by Ponceau S membrane staining (Sigma, St. Louis, Mo., USA) and by detection of anti-tubulin-α or anti-mcm-7 antibodies. The experiments were repeated three times. The protein expressions in treated cells were compared to untreated controls.
# Western blot analysis was used to detect changes in apoptosis related protein expression in breast and prostate cancer cell lines. […] This decreased expression of Bid can indicate a cleavage of the protein after treatment by BRs. In DU-145 cell line, expression of pro-apoptotic proteins Bax and Bid was unchanged. […] On the other hand, caspase cleavage was not found in DU-145 cells. Poly-(ADP-ribose) polymerase (PARP) positive expression in controls of prostate cancer cell lines was observed but brassinosteroids had no effect on its expression nor on its degradation within the period 6/12/24 h (FIG. 6B).
# [3] = test system: MCF-7 cells; experiment: BrdU incorporation assay, MCF-7
# Experimental: To analyze if the inhibition in cell viability was due to decreased cell proliferation, we measured DNA synthesis in the presence of BRs. The effect of brassinosteroids 9 or 6 on cell proliferation and DNA replication of the cancer cells was measured by BrdU incorporation assay. This immunostaining was based on nuclear incorporation of bromodeoxyuridine (BrdU) into DNA in place of thymidine during the S-phase of cell cycle detected by anti-specific-BrdU antibody following membrane permeabilization as described previously (Gratzner, Science. 1982, 218, 474-475). […] The BrdU reagent (0.1 mM; Sigma, MO, USA) was added in culture medium with cells for 4 h in a CO2 incubator at 37° C. After incubation the cells were washed three times with PBS and fixed with cold acetone-methanol (1:1, v/v) for 10 min. The cells were denaturated by HCl (1:5; Lachema, Czech Republic) and incubated with anti-specific-BrdU antibody (diluted 1:100 in PBS; clone Bu20a, DakoCytomation, Denmark) for 60 min in the dark. The cells were then washed three times in PBS (10 mM, pH 7.4) and incubated with goat anti-mouse fluorescein isothiocyanate (FITC)-labeled secondary antibody (Sigma, MO, USA) for 60 min in the dark. The cells were then washed three times in PBS and incubated with DAPI (50 μg/mL; Sigma, MO, USA) for 10 min in the dark. The coverslips with cells were washed in deionized water and mounted on glass slides, using the hydrophilic medium Mowiol (Calbiochem, Calif., USA) in glycerol-PBS (1:3, v/v) for fluorescence. Cells were visualized using microscopy and those incorporating BrdU (S phase cells) were counted in at least 25 fields and compared with the total number of all cells.
# [4] = treated at IC50 for 6 h, control 50 ± 3.6
# [5] = treated at IC50 for 12 h, control 53 ± 3.5
# [6] = treated at IC50 for 24 h, control 69 ± 4.5
SMILES,percentage of TUNEL positive cells ([1]; 6 h) [%],percentage of TUNEL positive cells ([1]; 12 h) [%],percentage of TUNEL positive cells ([1]; 24 h) [%],cyclin D1 expression (Western blot) ([2]; 6/12/24 h vs untreated control),"expression of apoptosis related proteins (Bcl-2 family, caspase-3 activation) (Western blot) [2]",p21Waf1/Cip1 expression (Western blot) [2],p27Kip1 expression (Western blot) [2],"retinoblastoma protein (Rb) expression, phosphorylated and dephosphorylated forms (Western blot) [2]","percentage of proliferating BrdU positive cells [3, 4] [%]","percentage of proliferating BrdU positive cells [3, 5] [%]","percentage of proliferating BrdU positive cells [3, 6] [%]"
"CC(C)[C@@H](C)[C@@H](O)[C@H](O)[C@@H](C)[C@H]1CC[C@H]2[C@@H]3COC(=O)[C@H]4C[C@H](O)[C@H](O)C[C@]4(C)[C@H]3CC[C@]12C [Brassinosteroid 6, 24-Epibrassinolide]",4.7 ± 0.6,16.7 ± 4.7,18.3 ± 3.0,decreased expression of cyclin D1,no significant changes in expression of Bcl-2 family protein nor caspase-3 activation,significantly increased after 12 and 24 h,decreased in all time points,decreased,42 ± 3.2,40 ± 7.1,36 ± 5.5
"CC[C@@H](C(C)C)[C@@H](O)[C@H](O)[C@@H](C)[C@H]1CC[C@H]2[C@@H]3CC(=O)[C@H]4C[C@H](O)[C@H](O)C[C@]4(C)[C@H]3CC[C@]12C [Brassinosteroid 9, 28-Homocastasterone]",1.7 ± 0.6,2.3 ± 0.6,4.3 ± 0.6,,no significant changes in expression of Bcl-2 family protein nor caspase-3 activation,no significant changes,no significant changes,decreased,46 ± 2.5,31 ± 3.8,29±4.0
